Measured values published in patent publication US9540366B2, “Ring-fused heterocyclic compound” (Kyowa Hakko Kirin Co., Ltd., priority 2012, dated 2017).
Where two headings read alike, the source gives them in different places.

Target: T1, human Cav3.2 T-type Ca2+ channel (Homo sapiens, UniProt O95180)
T1 construct: expressed in transfected cells; host or cells: KJMGER8 cells (Namalwa cell-derived cell line)
Assay: Inhibitory effect for intracellular calcium response via Cav3.2 T-type Ca2+ channels (FLIPR Calcium 3 Assay Kit)
Format: cell-based

[1] = human Cav3.2-expressing KJMGER8 cells (Namalwa-derived), calcium response induced by 5 mmol/L CaCl2, 3 μmol/L mibefradil as reference, read-out: IC50 for the human Cav3.2 T-type Ca2+ current

T1 sequence (O95180 whole entry): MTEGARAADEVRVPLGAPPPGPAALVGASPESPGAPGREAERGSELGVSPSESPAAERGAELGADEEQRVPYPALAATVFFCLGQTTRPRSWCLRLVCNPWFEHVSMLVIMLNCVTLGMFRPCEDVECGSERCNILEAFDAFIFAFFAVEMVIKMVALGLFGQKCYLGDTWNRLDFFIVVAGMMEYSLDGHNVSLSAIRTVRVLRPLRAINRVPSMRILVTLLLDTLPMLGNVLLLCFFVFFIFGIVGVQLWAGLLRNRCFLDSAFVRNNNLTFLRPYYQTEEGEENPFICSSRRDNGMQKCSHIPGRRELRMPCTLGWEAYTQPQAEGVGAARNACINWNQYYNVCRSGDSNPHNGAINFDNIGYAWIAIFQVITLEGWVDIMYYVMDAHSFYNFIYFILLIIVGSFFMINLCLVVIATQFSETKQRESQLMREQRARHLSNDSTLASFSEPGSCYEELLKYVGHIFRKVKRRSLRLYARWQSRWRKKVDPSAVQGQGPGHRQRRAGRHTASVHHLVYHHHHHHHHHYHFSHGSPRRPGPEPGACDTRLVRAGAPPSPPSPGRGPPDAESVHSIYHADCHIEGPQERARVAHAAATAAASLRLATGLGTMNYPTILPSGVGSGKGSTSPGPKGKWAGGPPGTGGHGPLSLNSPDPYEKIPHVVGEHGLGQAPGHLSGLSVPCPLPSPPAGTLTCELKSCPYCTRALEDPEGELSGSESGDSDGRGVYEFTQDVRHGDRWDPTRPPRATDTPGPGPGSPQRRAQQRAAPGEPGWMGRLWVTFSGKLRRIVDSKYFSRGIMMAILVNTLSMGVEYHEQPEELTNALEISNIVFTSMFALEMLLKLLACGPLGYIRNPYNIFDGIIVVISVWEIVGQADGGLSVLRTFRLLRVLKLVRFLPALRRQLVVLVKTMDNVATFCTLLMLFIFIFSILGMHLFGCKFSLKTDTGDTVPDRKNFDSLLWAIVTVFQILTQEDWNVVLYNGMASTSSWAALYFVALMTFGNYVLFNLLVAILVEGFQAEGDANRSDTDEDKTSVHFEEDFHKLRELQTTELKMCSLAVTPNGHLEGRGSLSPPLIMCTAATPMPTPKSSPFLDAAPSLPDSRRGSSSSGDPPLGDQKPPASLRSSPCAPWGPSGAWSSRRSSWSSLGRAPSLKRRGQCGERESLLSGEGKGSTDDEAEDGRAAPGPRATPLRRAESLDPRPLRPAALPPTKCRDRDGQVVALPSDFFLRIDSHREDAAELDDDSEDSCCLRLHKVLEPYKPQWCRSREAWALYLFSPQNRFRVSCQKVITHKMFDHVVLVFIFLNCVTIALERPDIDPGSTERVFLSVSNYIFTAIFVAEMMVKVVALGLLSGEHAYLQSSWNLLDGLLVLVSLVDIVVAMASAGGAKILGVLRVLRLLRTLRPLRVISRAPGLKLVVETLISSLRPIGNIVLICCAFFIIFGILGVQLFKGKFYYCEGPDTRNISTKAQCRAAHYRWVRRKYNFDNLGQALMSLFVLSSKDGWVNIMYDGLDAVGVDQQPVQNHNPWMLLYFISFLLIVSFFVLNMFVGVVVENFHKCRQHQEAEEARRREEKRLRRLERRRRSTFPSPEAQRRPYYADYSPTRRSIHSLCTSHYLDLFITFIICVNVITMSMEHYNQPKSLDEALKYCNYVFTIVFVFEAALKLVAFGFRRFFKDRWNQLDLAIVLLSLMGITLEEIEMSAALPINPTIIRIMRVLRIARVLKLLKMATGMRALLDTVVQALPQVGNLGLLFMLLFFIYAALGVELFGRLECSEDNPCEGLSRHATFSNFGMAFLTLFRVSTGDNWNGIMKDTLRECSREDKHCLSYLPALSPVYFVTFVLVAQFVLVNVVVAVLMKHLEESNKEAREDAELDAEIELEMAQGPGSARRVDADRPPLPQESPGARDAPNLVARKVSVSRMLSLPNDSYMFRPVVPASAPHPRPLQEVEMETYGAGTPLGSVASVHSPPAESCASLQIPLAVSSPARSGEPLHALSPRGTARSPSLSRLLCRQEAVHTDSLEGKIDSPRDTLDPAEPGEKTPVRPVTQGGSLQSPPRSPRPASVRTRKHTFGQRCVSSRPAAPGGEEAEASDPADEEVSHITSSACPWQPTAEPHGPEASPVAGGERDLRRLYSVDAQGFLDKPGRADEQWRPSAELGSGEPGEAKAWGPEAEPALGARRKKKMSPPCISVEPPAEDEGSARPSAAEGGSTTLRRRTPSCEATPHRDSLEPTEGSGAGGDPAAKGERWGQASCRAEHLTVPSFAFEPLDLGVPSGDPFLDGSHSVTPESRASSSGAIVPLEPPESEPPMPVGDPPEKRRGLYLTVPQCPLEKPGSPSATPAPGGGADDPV

| SMILES | IC50 | IC50 [1] |
| --- | --- | --- |
| CSC(C)(C)CNC(=O)c1cc2nc(C(F)(F)F)c(CC3CCC(F)(F)CC3)n2c(Cl)c1Cl [Compound 213, 5,6-Dichloro-3-[(4,4-difluorocyclohexyl)methyl]-N-[2-methyl-2-(methylthio)propyl]-2-(trifluoromethyl)imidazo[1,2-a]pyridine-7-carboxamide] | ≤ 100 nM |  |
| N#Cc1cc(C(=O)NC2(C3CCOCC3)CC2)cc2nc(C(F)(F)F)c(CC3CCC(F)(F)CC3)n12 [Compound 66, 5-Cyano-3-[(4,4-difluorocyclohexyl)methyl]-N-[1-(tetrahydro-2H-pyran-4-yl)cyclopropyl]-2-(trifluoromethyl)imidazo[1,2-a]pyridine-7-carboxamide] | ≤ 100 nM |  |
| O=C(Nc1ccccc1)c1cc2nc(C3CC3)c(CC3CCC(F)(F)CC3)n2cc1Cl [Compound 6, 6-Chloro-2-cyclopropyl-3-[(4,4-difluorocyclohexyl)methyl]-N-phenylimidazo[1,2-a]pyridine-7-carboxamide] | ≤ 100 nM |  |
| CC(F)(F)c1nc2cc(C(=O)N[C@H]3C[C@@H]4CC[C@H]3O4)cc(C=O)n2c1CC1CCC(F)(F)CC1 [Compound 179, N-[(1R,2S,4S)-7-Oxabicyclo[2.2.1]heptan-2-yl]-3-[(4,4-difluorocyclohexyl)methyl]-2-(1,1-difluoroethyl)-5-formylimidazo[1,2-a]pyridine-7-carboxamide] | ≤ 100 nM |  |
| Cc1cc(C(=O)NC(C)(C)C)cc2nc(C(F)(F)F)c(CC3CCC(F)(F)CC3)n12 [Compound 217, N-tert-Butyl-3-[(4,4-difluorocyclohexyl)methyl]-5-methyl-2-(trifluoromethyl)imidazo[1,2-a]pyridine-7-carboxamide] | ≤ 100 nM |  |
| N#Cc1cc(C(=O)NCCCN2CCCC2=O)cc2nc(C(F)(F)F)c(CC3CCC(F)(F)CC3)n12 [Compound 149, 5-Cyano-3-[(4,4-difluorocyclohexyl)methyl]-N-[3-(2-oxopyrrolidin-1-yl)propyl]-2-(trifluoromethyl)imidazo[1,2-a]pyridine-7-carboxamide] |  | ≤ 100 nM |
| CC1(C)CC(NC(=O)c2cc(C#N)n3c(CC4CCC(F)(F)CC4)c(C(F)(F)F)nc3c2)CCO1 (stereo not shown) [Compound 57, 5-Cyano-3-[(4,4-difluorocyclohexyl)methyl]-N-(2,2-dimethyltetrahydro-2H-pyran-4-yl)-2-(trifluoromethyl)imidazo[1,2-a]pyridine-7-carboxamide] | ≤ 100 nM |  |
| N#Cc1cc(C(=O)NC2CCC2)cc2nc(C(F)(F)F)c(CC3CCC(F)(F)CC3)n12 [Compound 54, 5-Cyano-N-cyclobutyl-3-[(4,4-difluorocyclohexyl)methyl]-2-(trifluoromethyl)imidazo[1,2-a]pyridine-7-carboxamide] | ≤ 100 nM |  |
| O=C(NCc1ccncc1)c1cc(Cl)n2c(CC3CCC(F)(F)CC3)c(C(F)(F)F)nc2c1 [Compound 97] | ≤ 100 nM |  |
| N#Cc1cc(C(=O)NC2COC2)cc2nc(C(F)(F)F)c(CC3CCC(F)(F)CC3)n12 [Compound 60] |  | ≤ 100 nM |
| CC(C)(NC(=O)c1cc(C#N)n2c(CC3CCC(F)(F)CC3)c(C(F)(F)F)nc2c1)C1CCOCC1 [Compound 63, 5-Cyano-3-[(4,4-difluorocyclohexyl)methyl]-N-[2-(tetrahydro-2H-pyran-4-yl)propan-2-yl]-2-(trifluoromethyl)imidazo[1,2-a]pyridine-7-carboxamide] | ≤ 100 nM |  |
| O=C(NCc1ccccc1)c1cc(Cl)n2c(CC3CCC(F)(F)CC3)c(C(F)(F)F)nc2c1 [Compound 98, N-Benzyl-5-chloro-3-[(4,4-difluorocyclohexyl)methyl]-2-(trifluoromethyl)imidazo[1,2-a]pyridine-7-carboxamide] | ≤ 100 nM |  |
| CCC(F)(F)c1nc2cc(C(=O)NC3CCOCC3)cc(C)n2c1CC1CCC(F)(F)CC1 [Compound 27, 3-[(4,4-Difluorocyclohexyl)methyl]-2-(1,1-difluoropropyl)-5-methyl-N-(tetrahydro-2H-pyran-4-yl)imidazo[1,2-a]pyridine-7-carboxamide] | ≤ 100 nM |  |
